Results from EP0471221B1, “Herbicidal compositions” (IDEMITSU KOSAN COMPANY LIMITED, priority 1990, dated 1992).

Legend:
[1] = tested on: Galium aparine L.; assay: Test on post-emergence treatment (greenhouse pots, foliage spray); type: in vivo; details: after 20 days
Description: (§1) By uniformly blending 97 parts of clay (trademark: JIKURAITO, manufactured by JIKURAITO KOGYO) as the carrier, 1.5 parts of alkylaryl sulfonate (trademark: NEOPELEX, manufactured by Kao Atlas Co., Ltd.) as the surfactant, 1.5 parts of nonionic and anionic surfactant (trademark: Solpol 800A, manufactured by Toho Chemical Industry Co., Ltd.) and grinding into a powder, a carrier for wettable powders was obtained.
(§2) By uniformly blending 90 parts of this carrier for wettable powders and 10 parts of the triazine derivative shown in Table 1 (Compounds A-1 through A-7) or 10 parts of the thiocarbamate type herbicide shown in Table 2 (Compounds B) and grinding into a powder, wettable powders were obtained.
(§3) Furthermore, the carrier for wettable powders containing the triazine derivative obtained above was blended with the carrier for wettable powders containing the thiocarbamate type herbicide in definite amounts (ratios as active ingredients), uniformly kneaded and ground into powders to give wettable powders.
(§4) Wagner's pots of 1/2000 ares were filled with soil from upland fields and planted with weed seeds of Alopecurus myosuroides, Galium aparine L., Veronica hederifolia and Viola arvensis and crop seeds of wheat, barley and oat. The seeds were then covered with soil and cultivated in a greenhouse. An aqueous suspension of a definite amount of the herbicide obtained in Formulation Example 6 was uniformly sprayed onto the foliage of 1.5 to 2.5 leaf stage of these weeds and 3 leaf stage of the crops at a spray volume corresponding to 100 liters/10 ares. Then, cultivation was performed in the greenhouse. After 20 days, crop injury and the herbicidal effect on the weeds were evaluated according to the criterion described below.
(§5) The herbicidal rate described above was determined according to the following equation by measuring the raw weight of weed on the ground in the treated group and the raw weight of weed on the ground in the untreated group. [formula]
(§6) Some data were extracted from the results shown in Table 3 and the synergistic effect of the triazine derivative and the thiocarbamate type herbicide was examined on Galium aparine L. and Viola arvensis according to the following method. [formula] Q a : found data (%) of herbicidal rate when treated at a dosage corresponding to a g/10 ares using the triazine derivative alone as active ingredient Q b : found data (%) of herbicidal rate when treated at a dosage corresponding to b g/10 ares using the thiocarbamate type herbicide alone as active ingredient Q E : expected value [Limpel, L.E., P.H. Schuldt and D. Lamont, Proc. NEWCC, 16, 48-53 (1962)] Herein, when the found data (herbicidal rate) of the herbicidal obtained by mixing the triazine derivative and the thiocarbamate type herbicide is larger than Q E, it can be said that the herbicidal activity is synergistic.

[2] = tested on: Viola arvensis; assay: as above; type: in vivo; details: after 20 days
Description: as §1, §2, §3, §4, §5, §6

[3] = triazine derivative alone, 10 g/10a
[4] = triazine derivative alone, 5 g/10a
[5] = thiocarbamate type herbicide alone, 100 g/10a

Structure (SMILES) | Percent control of Galium aparine L.(%) [1, 3] | Percent control of Viola arvensis(%) [2, 3] | Percent control of Galium aparine L.(%) [1, 4] | Percent control of Viola arvensis(%) [2, 4] | further results
CC(Nc1nc(N)nc(C(C)(C)F)n1)c1cc2ccccc2o1 (stereo not drawn) [A₁, 2-amino-4-[1-(benzofuran-2'-yl)ethylamino]-6-(α-fluoro,α-methylethyl)-s-triazine] | 38% | 54% | – | – | –
CC(F)c1nc(N)nc(NC(C)c2cc3ccccc3o2)n1 (stereo not drawn) [A₂, 2-amino-4-[1-(benzofuran-2'-yl)ethylamino]-6-(α-fluoroethyl)-s-triazine] | – | – | 37% | 68% | –
CC(Nc1nc(N)nc(C(C)(C)F)n1)c1cc2ccccc2s1 (stereo not drawn) [A₃, 2-amino-4-[1-(benzothiophen-2'-yl)ethylamino]-6-(α-fluoro,α-methylethyl)-s-triazine] | 56% | 64% | – | – | –
Cc1cccc(OCC(C)Nc2nc(N)nc(C(C)(C)F)n2)c1 (stereo not drawn) [A₄, 2-amino-4-(α-fluoro,α-methylethyl)-6-[2-(3'-methylphenoxy)-1-methylethylamino]-s-triazine] | 62% | 74% | – | – | –
CC(COc1cccc(F)c1)Nc1nc(N)nc(C(C)(C)F)n1 (stereo not drawn) [A₅, 2-amino-4-(α-fluoro,α-methylethyl)-6-[2-(3'fluorophenoxy)-1-methylethylamino]-s-triazine] | – | – | 38% | 72% | –
Cc1cc(C)cc(OCC(C)Nc2nc(N)nc(C(C)(C)Cl)n2)c1 (stereo not drawn) [A₆, 2-amino-4-(α-chloro,α-methylethyl)-6-[2-(3',5'-dimethylphenoxy)-1-methylethylamino]-s-triazine] | 64% | 78% | – | – | –
Cc1cc(C)cc(OCC(C)Nc2nc(N)nc(C(C)(C)F)n2)c1 (stereo not drawn) [A₇, 2-amino-4-(α-fluoro,α-methylethyl)-6-[2-(3',5'-dimethylphenoxy)-1-methylethylamino]-s-triazine] | – | – | 40% | 63% | –
CCCN(CCC)C(=O)SCc1ccccc1 [B, S-benzyldipropyl thiocarbamate, reference compound] | – | – | – | – | Percent control of Galium aparine L.(%) [1, 5]: 36%; Percent control of Viola arvensis(%) [2, 5]: 19%
